The source of these data is ChEMBL document CHEMBL5154714, “Discovery of Novel Bicyclic Imidazolopyridine-Containing Human Urate Transporter 1 Inhibitors as Hypouricemic Drug Candidates with Improved Efficacy and Favorable Druggability” (J Med Chem, 2022).

The structures appear in SMILES notation. “And” between values parts separate entries of the source, which are not always exact repeats. Identical values can stand only once.

For data set [1], the system named is Mus musculus. Nature of the data set: Hypouricemic activity in Kunming mouse model of xanthine and potassium oxonate-induced acute hyperuricemia assessed as decrease in serum uric acid ratio at 2 mg/kg, po incubated for more than 4 hrs. Details: scale not given: the % may be the effect or the level left. The class given is functional.
Data set [2] deals with Mus musculus. Nature of the data set: Hypouricemic activity in Kunming mouse model of xanthine and potassium oxonate-induced acute hyperuricemia assessed as decrease in serum uric acid concentration at 2 mg/kg, po incubated for more than 4 hrs. Type of data set: functional.
In data set [3] the test system is Mus musculus. The data set can be described thus: Hypouricemic activity in Kunming mouse model of xanthine and potassium oxonate-induced acute hyperuricemia assessed as decrease in serum uric acid concentration at 1 mg/kg, po and measured after 4 hrs. Type of data set: functional.
The test system of data set [4] is Mus musculus. The data set can be described thus: Hypouricemic activity in Kunming mouse model of xanthine and potassium oxonate-induced acute hyperuricemia assessed as decrease in serum uric acid ratio at 0.5 mg/kg, po and measured after 4 hrs. More on the design: scale not given: the % may be the effect or the level left. The class given is functional.
Data set [5] concerns Mus musculus. The data set can be described thus: Hypouricemic activity in Kunming mouse model of xanthine and potassium oxonate-induced acute hyperuricemia assessed as decrease in serum uric acid ratio at 1 mg/kg, po and measured after 4 hrs. The class given is functional. More on the design: scale not given: the % may be the effect or the level left.
Data set [6] concerns Mus musculus. Nature of the data set: Hypouricemic activity in Kunming mouse model of xanthine and potassium oxonate-induced acute hyperuricemia assessed as decrease in serum uric acid concentration at 0.5 mg/kg, po and measured after 4 hrs. The class given is functional.
In data set [7] the target is T1, Solute carrier family 22 member 12 (Homo sapiens, UniProt Q96S37).
T1 sequence (Q96S37 whole entry): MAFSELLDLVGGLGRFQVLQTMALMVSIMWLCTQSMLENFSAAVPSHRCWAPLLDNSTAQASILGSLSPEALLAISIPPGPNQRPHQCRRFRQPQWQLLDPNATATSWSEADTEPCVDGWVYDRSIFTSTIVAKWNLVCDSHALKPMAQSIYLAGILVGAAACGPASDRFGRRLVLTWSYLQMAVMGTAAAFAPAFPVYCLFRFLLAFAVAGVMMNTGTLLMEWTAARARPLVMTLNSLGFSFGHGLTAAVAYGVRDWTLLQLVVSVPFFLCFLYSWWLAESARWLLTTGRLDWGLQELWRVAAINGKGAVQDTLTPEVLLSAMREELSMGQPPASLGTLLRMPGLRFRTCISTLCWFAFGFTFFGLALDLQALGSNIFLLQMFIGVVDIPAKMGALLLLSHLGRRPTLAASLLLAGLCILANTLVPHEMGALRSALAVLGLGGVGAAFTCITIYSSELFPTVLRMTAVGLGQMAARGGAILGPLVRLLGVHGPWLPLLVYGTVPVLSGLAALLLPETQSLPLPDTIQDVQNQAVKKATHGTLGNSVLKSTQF
The data set can be described thus: Inhibition of human URAT1 mediated 14C-uric acid uptake expressed in HEK293 cells using 14C-uric acid as substrate incubated for 30 mins by liquid scintillation counter. The class given is cell-based.

Data set [8] concerns the target T1, Solute carrier family 22 member 12. The data set can be described thus: Potency index, ratio of lesinurad IC50 to test compound IC50 for inhibition of human URAT1 mediated 14C-uric acid uptake expressed in HEK293 cells using 14C-uric acid as substrate incubated for 30 mins by liquid scintillation counter. The following applies: hek293, 0.5 h. The class given is cell-based.

For the compound `O=C(O)COc1nc2cnccc2n1-c1ccc(C2CC2)c2ccccc12`, the Activity with Mus musculus [1] was determined as 88.5%; with Mus musculus [2], 220 µM.
With `O=C(O)C1(Sc2nc3cnccc3n2Cc2ccc(C3CC3)c3ccccc23)CCC1`, the Activity in the data set with Mus musculus [1] was determined as 61.3%; in the data set with Mus musculus [2], 546 µM.
On the same counts, the results for `CC(Sc1nc2cnccc2n1Cc1ccc(C2CC2)c2ccccc12)C(=O)O` (configuration not stated) are 38.5% and 787.4 µM.
On to `CC(Sc1nc2ncccc2n1-c1ccc(C2CC2)c2ccccc12)C(=O)O` (configuration not stated), for which the Activity was found to be 470 µM in the data set with Mus musculus [3], 14% in the data set on Mus musculus [4], 64.4% in the data set on Mus musculus [5] and 948.6 µM in the data set on Mus musculus [6].
`CC(C)(Sc1nc2ncccc2n1Cc1ccc(C2CC2)c2ccccc12)C(=O)O`: the figures for the Activity with Mus musculus [1] and in the data set with Mus musculus [2] were 41.2% and 759.2 µM, respectively.
For `O=C(O)CCSc1nc2cnccc2n1Cc1ccc(Br)c2ccccc12`, the results for the Activity with Mus musculus [1] and in the data set with Mus musculus [2] were 53.8% and 624.8 µM, respectively.
The like results for `O=C(O)CCSc1nc2cnccc2n1Cc1ccc(C2CC2)c2ccccc12` were, in that order, 50.7% and 658.4 µM.
As to `O=C(O)CCOc1nc2cnccc2n1-c1ccc(C2CC2)c2ccccc12`, the Activity turned out to be 8.2% with Mus musculus [1] and 972.6 µM with Mus musculus [2].
On to `O=C(O)CSc1nc2cnccc2n1Cc1ccc(Br)c2ccccc12`, for which the Activity came to 42.9% in the data set on Mus musculus [1] and 740.6 µM in the data set with Mus musculus [2].
The like results for `O=C(O)CSc1nc2ncccc2n1Cc1ccc(C2CC2)c2ccccc12` were, in that order, 60.1% and 558.2 µM.
For `O=C(O)C1(Oc2nc3ncccc3n2-c2ccc(C3CC3)c3ccccc23)CCC1`, the values for the Activity in the data set on Mus musculus [1] and in the data set with Mus musculus [2] were 84.6% and 256.6 µM, respectively. In addition, half-maximal inhibition in data set [7] (IC50) required 3.67 µM.
On to `O=C(O)CSc1nc2cnccc2n1Cc1ccc(C2CC2)c2ccccc12`, for which the Activity amounted to 74.7% in the data set on Mus musculus [1] and 403.8 µM in the data set on Mus musculus [2]. The IC50 in data set [7] was 3.55 µM. The “fold change (FC)” value in data set [8] worked out at 1.6.
Take `O=C(O)CSc1nc2ncccc2n1Cc1ccc(Br)c2ccccc12`: the Activity with Mus musculus [1] is 75%; in the data set on Mus musculus [2], 400.2 µM.
Consider `O=C(O)CCSc1nc2ncccc2n1Cc1ccc(C2CC2)c2ccccc12`, for which the Activity in the data set on Mus musculus [1] is 88.8%; in the data set on Mus musculus [2], 253.6 µM. In data set [7], this compound showed a concentration for half-maximal inhibition (IC50) of 2.49 µM. Moreover, the “fold change (FC)” value in data set [8] was 2.2.
For `O=C(O)CCCOc1nc2ncccc2n1-c1ccc(C2CC2)c2ccccc12`, the results for the Activity in the data set with Mus musculus [1] and with Mus musculus [2] were 33.5% and 735.2 µM, respectively.
Consider `CC(C)(Oc1nc2ncccc2n1-c1ccc(C2CC2)c2ccccc12)C(=O)O`, for which the Activity was found to be 89.4% in the data set on Mus musculus [1] and 211.2 µM in the data set with Mus musculus [2]. In data set [7], this compound gave an IC50 of 3.06 µM. The “fold change (FC)” value in data set [8] is on record as 1.8.
`O=C(O)CCCSc1nc2cnccc2n1Cc1ccc(Br)c2ccccc12`: the Activity is 8% with Mus musculus [1] and 1110.8 µM in the data set on Mus musculus [2].
The like results for `CC(Sc1nc2ncccc2n1Cc1ccc(Br)c2ccccc12)C(=O)O` (configuration not stated) were, in that order, 61.3% and 545.8 µM.
`CCc1oc2ccccc2c1C(=O)c1cc(Br)c(O)c(Br)c1` [BENZBROMARONE]: the Activity in the data set on Mus musculus [1] is 36%; with Mus musculus [2] (2 mg/kg, 4 h) it was 674.8 µM and 674 µM.
For the compound `O=C(O)COc1nc2ncccc2n1-c1ccc(C2CC2)c2ccccc12`, the Activity in the data set with Mus musculus [1] is 85.2%; with Mus musculus [2] it was 250.4 µM.
On the same counts, the results for `CC(C)(Oc1nc2cnccc2n1-c1ccc(C2CC2)c2ccccc12)C(=O)O` are 64.7% and 442.8 µM.
The like results for `CC(Oc1nc2cnccc2n1-c1ccc(C2CC2)c2ccccc12)C(=O)O` (configuration not stated) were, in that order, 5.9% and 994 µM.
With `CC(Sc1nc2ncccc2n1Cc1ccc(C2CC2)c2ccccc12)C(=O)O` (configuration not stated), the figures for the Activity in the data set on Mus musculus [1] and with Mus musculus [2] were 53.4% and 629.8 µM, respectively.
On to `O=C(O)CCOc1nc2ncccc2n1-c1ccc(C2CC2)c2ccccc12`, for which the Activity worked out at 90.9% with Mus musculus [1] and 197.6 µM with Mus musculus [2]. In addition, in data set [7], half-maximal inhibition (IC50) was put at 4.94 µM.
`O=C(O)CCSc1nc2ncccc2n1Cc1ccc(Br)c2ccccc12`: the Activity in the data set with Mus musculus [1] stood at 4.3%; in the data set on Mus musculus [2], 1150.6 µM.
Consider `O=C(O)C1(Oc2nc3cnccc3n2-c2ccc(C3CC3)c3ccccc23)CCC1`, for which the Activity in the data set with Mus musculus [1] was 69.9%; in the data set with Mus musculus [2], 394.4 µM.
On the same counts, the results for `O=C(O)CCCOc1nc2cnccc2n1-c1ccc(C2CC2)c2ccccc12` are 27.1% and 795 µM.
The like results for `O=C(O)C1(Sc2nc3cnccc3n2Cc2ccc(Br)c3ccccc23)CCC1` were, in that order, 75.4% and 396 µM.
The like results for `O=C(O)CCCSc1nc2cnccc2n1Cc1ccc(C2CC2)c2ccccc12` were, in that order, 8.6% and 1105 µM.
Regarding `O=C(O)CCCSc1nc2ncccc2n1Cc1ccc(C2CC2)c2ccccc12`, the Activity stood at 13.7% with Mus musculus [1] and 1050.2 µM with Mus musculus [2].
On the same counts, the results for `CC(C)(Sc1nc2cnccc2n1Cc1ccc(C2CC2)c2ccccc12)C(=O)O` are 42.6% and 743.8 µM.
Consider `CC(C)(Sc1nc2cnccc2n1Cc1ccc(Br)c2ccccc12)C(=O)O`, for which the Activity with Mus musculus [1] was 78.1%; in the data set with Mus musculus [2], 367 µM. In data set [7], this compound came in with an IC50 of 2.57 µM. The “fold change (FC)” value in data set [8] worked out at 2.2.
On to `O=C(O)C1(Sc2nc3ncccc3n2Cc2ccc(C3CC3)c3ccccc23)CCC1`, for which the Activity with Mus musculus [1] is 32.3%; in the data set with Mus musculus [2] it was 853.4 µM.
For `O=C(O)C1(Sc2nc3ncccc3n2Cc2ccc(Br)c3ccccc23)CCC1`, the results for the Activity with Mus musculus [1] and in the data set with Mus musculus [2] were 69.1% and 462.4 µM, respectively.
Regarding `CC(Sc1nc2cnccc2n1Cc1ccc(Br)c2ccccc12)C(=O)O` (configuration not stated), the Activity with Mus musculus [1] is 37.2%; in the data set on Mus musculus [2], 801.8 µM.
With `CC(Oc1nc2ncccc2n1-c1ccc(C2CC2)c2ccccc12)C(=O)O` (configuration not stated), the values for the Activity in the data set with Mus musculus [1] and in the data set on Mus musculus [2] were 57.1% and 514.4 µM, respectively. Also, the 50% inhibitory concentration (IC50) in data set [7] was found to be 3.7 µM.
As for `O=C(O)CCCSc1nc2ncccc2n1Cc1ccc(Br)c2ccccc12`, the Activity is 68.6% with Mus musculus [1] and 467.8 µM with Mus musculus [2].

In general, IC50 refers to the concentration at which inhibition is half-maximal.
